# Article PMC2362650, “Phase I and pharmacokinetic study of the topoisomerase II catalytic inhibitor fostriecin” (British Journal of Cancer, 1999)
# Assay: Phase I study: toxicity graded with NCI common toxicity criteria in patients
# Assay type: in vivo, human
# Text: Fostriecin (CI-920) is a topoisomerase (topo) II catalytic activity inhibitor (Boritzki et al, 1988) (Figure 1). This novel class of topo II-targeting drugs is considered of potential value for treatment of patients with tumours resistant to classic topo II poisons, including anthracyclines and podophyllotoxins (Cummings and Smyth, 1993). The nuclear enzyme topo II is essential for the regulation of DNA conformation (reviewed in Osheroff et al, 1991). Central in its action is the formation of a complex with DNA. Stabilization of this complex by topo II poisons induces DNA damage and cell death (Froelich-Ammon and Osheroff, 1995). Decreased complex formation due to decreased topo II levels is considered to be an important mechanism of tumour-resistance to topo II poisons (Beck and Danks, 1991). The topo II catalytic inhibitor fostriecin is expected to have increased activity against tumour cells with low topo II levels and this was confirmed in in vitro studies (De Jong et al, 1991). […] Because of increased toxi- city of fostriecin in dogs compared to mice, a dose below one-third of the one-tenth mouse equivalent LD10, 2 mg m-2 day-1, was chosen as starting dose in humans (Clinical Brochure Fostriecin, 1991). […] We also performed an analysis of the human pharmacokinetics of fostriecin and ex vivo experiments to investigate if the plasma drug concentrations achieved were sufficient to inhibit a tenipo- side-resistant tumour cell line. The maximum tolerated dose (MTD) of fostriecin could not be established because drug supply was stopped prematurely. However, results of this study may provide a basis for continued clinical development of this agent. PATIENTS AND METHODS Patient selection, drug administration and evaluation Patient eligibility criteria were: histologically confirmed diagnosis of a solid tumour, no longer amenable to established forms of treatment; age 18-75 years; Eastern Cooperative Oncology Group (ECOG) performance status 2; life expectancy 12 weeks; no Phase I and pharmacokinetic study of the topoisomerase II catalytic inhibitor fostriecin RS de Jong1, NH Mulder1, DRA Uges2, DTh Sleijfer1, FJP Hoppener4, HJM Groen3, PHB Willemse1, WTA van der Graaf1 and EGE de Vries1 Departments of 1Medical Oncology, 2Pharmacy and Toxicology, and 3Pulmonary Diseases, University Hospital Groningen, The Netherlands; 4EORTC New Drug Development Office, Amsterdam, The Netherlands Summary We conducted a phase I and pharmacokinetic study of the topoisomerase II catalytic inhibitor fostriecin. Fostriecin was administered intravenously over 60 min on days 1-5 at 4-week intervals. Dose was escalated from 2 mg m-2 day-1 to 20 mg m-2 day-1 in 20 patients. Drug pharmacokinetics was analysed with high performance liquid chromatography with UV-detection. Plasma collected during drug administration was tested in vitro for growth inhibition of a teniposide-resistant small-cell lung cancer (SCLC) cell line. The predominant toxicities were elevated liver transaminases (maximum common toxicity criteria (CTC) grade 4) and serum creatinine (maximum CTC grade 2). […] Duration of elevated alanine-amino transferase (ALT) was dose-limiting in one patient at 20 mg m-2. Other frequent toxicities were grade 1-2 nausea/vomiting, fever and mild fatigue. […] A metabolite, most probably dephosphorylated fostriecin, was detected in plasma and urine. […] However, further escalation seems possible and is warranted to achieve potentially effective drug levels. Fostriecin has a short plasma half-life and longer duration of infusion should be considered. […]
# [1] = 12.2 mg m-2, 3 patients/8 courses
# [2] = 20 mg m-2, 2 patients/4 courses
# [3] = one patient at 20 mg m-2 after course 2
smiles,measurement,setting,value
C[C@@](O)(/C=C/[C@H]1CC=CC(=O)O1)[C@@H](C[C@@H](O)\C=C/C=C\C=C\CO)OP(=O)(O)O [fostriecin],"CTC-grade 1 ALP: courses causing toxicity, all full-dose courses",[1],3
same,CTC-grade 1 ALP: patients developing toxicity in first course,[1],1
same,"CTC-grade 1 ALT: courses causing toxicity, all full-dose courses",[1],0
same,CTC-grade 1 ALT: patients developing toxicity in first course,[1],0
same,"CTC-grade 1 AST: courses causing toxicity, all full-dose courses",[1],0
same,CTC-grade 1 AST: patients developing toxicity in first course,[1],0
same,"CTC-grade 1 GGT: courses causing toxicity, all full-dose courses",[1],2
same,CTC-grade 1 GGT: patients developing toxicity in first course,[1],1
same,"CTC-grade 1 creatinine: courses causing toxicity, all full-dose courses",[1],5
same,CTC-grade 1 creatinine: patients developing toxicity in first course,[1],1
same,"CTC-grade 2 ALP: courses causing toxicity, all full-dose courses",[1],1
same,CTC-grade 2 ALP: patients developing toxicity in first course,[1],0
same,"CTC-grade 2 ALT: courses causing toxicity, all full-dose courses",[1],1
same,CTC-grade 2 ALT: patients developing toxicity in first course,[1],0
same,"CTC-grade 2 AST: courses causing toxicity, all full-dose courses",[1],3
same,CTC-grade 2 AST: patients developing toxicity in first course,[1],0
same,"CTC-grade 2 GGT: courses causing toxicity, all full-dose courses",[1],2
same,CTC-grade 2 GGT: patients developing toxicity in first course,[1],1
same,"CTC-grade 2 bilirubin: courses causing toxicity, all full-dose courses",[1],6
same,CTC-grade 2 bilirubin: patients developing toxicity in first course,[1],2
same,"CTC-grade 2 creatinine: courses causing toxicity, all full-dose courses",[1],3
same,CTC-grade 2 creatinine: patients developing toxicity in first course,[1],2
same,"CTC-grade 3 ALT: courses causing toxicity, all full-dose courses",[1],6
same,CTC-grade 3 ALT: patients developing toxicity in first course,[1],2
same,"CTC-grade 3 AST: courses causing toxicity, all full-dose courses",[1],4
same,CTC-grade 3 AST: patients developing toxicity in first course,[1],3
same,"CTC-grade 3 GGT: courses causing toxicity, all full-dose courses",[1],2
same,CTC-grade 3 GGT: patients developing toxicity in first course,[1],1
same,"CTC-grade 3 bilirubin: courses causing toxicity, all full-dose courses",[1],1
same,CTC-grade 3 bilirubin: patients developing toxicity in first course,[1],0
same,"CTC-grade 4 ALT: courses causing toxicity, all full-dose courses",[1],1
same,CTC-grade 4 ALT: patients developing toxicity in first course,[1],1
same,number of patients with dose-limiting ALT elevation (grade 3 persisting > 7 days),20 mg m-2,one
same,number of patients with reversible thrombocytopenia (grade 2),20 mg m-2,one
same,"CTC-grade 1 ALP: courses causing toxicity, all full-dose courses",[2],2
same,CTC-grade 1 ALP: patients developing toxicity in first course,[2],2
same,"CTC-grade 1 ALT: courses causing toxicity, all full-dose courses",[2],0
same,CTC-grade 1 ALT: patients developing toxicity in first course,[2],0
same,"CTC-grade 1 AST: courses causing toxicity, all full-dose courses",[2],0
same,CTC-grade 1 AST: patients developing toxicity in first course,[2],0
same,"CTC-grade 1 GGT: courses causing toxicity, all full-dose courses",[2],2
same,CTC-grade 1 GGT: patients developing toxicity in first course,[2],1
same,"CTC-grade 1 creatinine: courses causing toxicity, all full-dose courses",[2],1
same,CTC-grade 1 creatinine: patients developing toxicity in first course,[2],1
same,"CTC-grade 2 ALT: courses causing toxicity, all full-dose courses",[2],2
same,CTC-grade 2 ALT: patients developing toxicity in first course,[2],1
same,"CTC-grade 2 AST: courses causing toxicity, all full-dose courses",[2],1
same,CTC-grade 2 AST: patients developing toxicity in first course,[2],0
same,"CTC-grade 2 GGT: courses causing toxicity, all full-dose courses",[2],0
same,CTC-grade 2 GGT: patients developing toxicity in first course,[2],0
same,"CTC-grade 2 creatinine: courses causing toxicity, all full-dose courses",[2],2
same,CTC-grade 2 creatinine: patients developing toxicity in first course,[2],1
same,"CTC-grade 3 ALT: courses causing toxicity, all full-dose courses",[2],2
same,CTC-grade 3 ALT: patients developing toxicity in first course,[2],1
same,"CTC-grade 3 AST: courses causing toxicity, all full-dose courses",[2],2
same,CTC-grade 3 AST: patients developing toxicity in first course,[2],1
same,"CTC-grade 3 GGT: courses causing toxicity, all full-dose courses",[2],2
same,CTC-grade 3 GGT: patients developing toxicity in first course,[2],1
same,number of patients with nausea/vomiting (grade 1-2) during course 1,20 patients,11
same,time to resolution of ALT and AST elevations after drug administration,all patients,≤ 3 weeks
same,number of patients with microscopic haematuria (grade 1),doses 6.6 mg m-2 (and above),seven
same,number of patients with transient proteinuria grade 1,doses 10 mg m-2 (and above),seven
same,number of patients with transient proteinuria grade 2,doses 10 mg m-2 (and above),one
same,number of patients with mild fatigue (grade 1-2),during drug administration and the week thereafter,Eight
same,maximum tolerated dose (MTD),escalation stopped at 20 mg m-2,has not been reached
same,maximum CTC grade of elevated liver transaminases,"human, blood, intravenous",4
same,leuco- or neutropenia,"human, in vivo",No leuco- or neutropenia
same,number of patients with fever > 38C (grade 2),"human, in vivo",six
same,number of patients with fever > 39C,"human, in vivo",one
same,number of patients with grade 1-2 anaemia,"human, in vivo",Fourteen
same,number of patients with grade 2 LDH increases,"human, in vivo",three
same,number of patients with grade 2 hyponatraemia,"human, in vivo",one
same,number of patients with grade 2 oedema,"human, in vivo",one
same,number of patients with hyperglycaemia grade 1-2 and/or hypoglycaemia grade 1,"human, in vivo",seven
same,number of patients with reversible increases of bilirubin,"human, in vivo",four
same,number of courses with fever > 38C (grade 2),"human, in vivo, intravenous",11
same,number of patients with occasional increase of body temperature,"human, in vivo, intravenous",17
same,time to resolution of renal toxicities after last dose of each course,"human, in vivo, intravenous",1-2 weeks
same,number of patients with increase of body temperature during course 1,"human, in vivo, intravenous, 1 course (days 1-5, 4-week interval)",14
same,maximum CTC grade of elevated serum creatinine,"human, serum, intravenous",2
same,day of ALT peak per course,median,2.5 days
same,day of serum creatinine peak,median,3 days
same,number of courses with nausea/vomiting (grade 1-2),of the 42 courses at full dose,33
same,maximum transient proteinuria,[3],3.3 g 24 h-1
same,serum albumin (hypoalbuminaemia),[3],28 g/L
same,median duration of grade 3 ALT,range 1-9 days,3.5 days
same,"PT, fibrinogen, anti-thrombin III and cholinesterase levels","six patients (13 courses) at 10-20 mg m-2, days 0 and 5",not affected
